What was measured:
[1] = molecular target: T1, Adenosine kinase (Toxoplasma gondii) (UniProt Q9TVW2); assay: Binding affinity to Toxoplasma gondii adenosine kinase assessed as formation of [14C]AMP from [14C]adenosine and ATP after 10 mins by liquid scintillation counting method relative to control
T1 sequence (whole entry): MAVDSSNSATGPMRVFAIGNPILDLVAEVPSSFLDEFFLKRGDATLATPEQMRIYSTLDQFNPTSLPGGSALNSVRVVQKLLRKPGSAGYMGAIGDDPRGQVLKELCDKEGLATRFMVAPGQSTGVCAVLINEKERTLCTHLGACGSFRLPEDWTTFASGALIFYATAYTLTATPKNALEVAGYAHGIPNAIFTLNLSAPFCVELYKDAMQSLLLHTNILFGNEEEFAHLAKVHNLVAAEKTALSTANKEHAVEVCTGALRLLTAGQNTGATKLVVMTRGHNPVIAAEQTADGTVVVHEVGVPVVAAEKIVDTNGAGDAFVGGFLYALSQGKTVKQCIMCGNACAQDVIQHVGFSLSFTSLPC

[2] = molecular target: Human immunodeficiency virus type 1 reverse transcriptase (Human immunodeficiency virus 1) (UniProt Q72547); assay: Binding affinity to HIV1 reverse transcriptase relative to control
[3] = molecular target: T2, Casein kinase II subunit alpha (Homo sapiens, UniProt P68400); assay: Inhibition of CK2alpha (unknown origin)
T2 sequence (P68400 whole entry): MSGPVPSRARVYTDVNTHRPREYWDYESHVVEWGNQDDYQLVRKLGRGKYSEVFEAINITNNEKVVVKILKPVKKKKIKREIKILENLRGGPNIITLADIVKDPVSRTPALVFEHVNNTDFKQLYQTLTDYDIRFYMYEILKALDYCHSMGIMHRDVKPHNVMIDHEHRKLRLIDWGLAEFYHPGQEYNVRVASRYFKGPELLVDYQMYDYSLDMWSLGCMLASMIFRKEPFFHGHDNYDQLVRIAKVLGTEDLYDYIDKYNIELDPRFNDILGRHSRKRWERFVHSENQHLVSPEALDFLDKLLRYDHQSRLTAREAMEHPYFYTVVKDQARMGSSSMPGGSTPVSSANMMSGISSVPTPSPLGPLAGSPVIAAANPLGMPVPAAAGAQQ

[4] = molecular target: Cellular tumor antigen p53 (Homo sapiens, UniProt P04637, Y220C); assay: Stabilization of human p53 Y220C mutant by differential scanning calorimetry
[5] = molecular target: Casein kinase II (Homo sapiens, UniProt P19784+P67870+P68400); assay: Inhibition of CK2 (unknown origin); format: protein-complex assay
Sequence of Casein kinase II (P67870 whole entry): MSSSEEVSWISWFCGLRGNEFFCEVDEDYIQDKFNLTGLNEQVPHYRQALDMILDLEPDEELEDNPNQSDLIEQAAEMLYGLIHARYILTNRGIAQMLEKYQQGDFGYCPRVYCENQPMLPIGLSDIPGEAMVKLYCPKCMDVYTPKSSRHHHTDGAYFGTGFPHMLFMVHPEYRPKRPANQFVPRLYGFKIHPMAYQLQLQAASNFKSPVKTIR
Sequence of Casein kinase II (P68400 whole entry): as the sequence (P68400 whole entry) above
Sequence of Casein kinase II (P19784 whole entry): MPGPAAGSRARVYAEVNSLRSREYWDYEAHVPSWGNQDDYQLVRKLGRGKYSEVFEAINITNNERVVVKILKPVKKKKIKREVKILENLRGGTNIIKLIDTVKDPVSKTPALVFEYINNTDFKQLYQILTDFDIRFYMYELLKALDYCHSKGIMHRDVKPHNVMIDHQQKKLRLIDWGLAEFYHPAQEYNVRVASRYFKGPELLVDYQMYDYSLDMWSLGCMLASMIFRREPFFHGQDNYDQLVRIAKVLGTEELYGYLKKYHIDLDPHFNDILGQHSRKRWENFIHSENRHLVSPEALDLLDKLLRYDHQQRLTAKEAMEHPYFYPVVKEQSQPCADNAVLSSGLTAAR

[6] = molecular target: T2, Casein kinase II subunit alpha; assay: Competitive inhibition of human wild type CK2alpha by Dixon plot analysis
[7] = molecular target: T2, Casein kinase II subunit alpha; assay: Inhibition of human wild type CK2alpha

Nc1ncnc2c1c(I)cn2[C@@H]1O[C@H](CO)[C@@H](O)[C@H]1O
fold change (FC) [1]: 200

O=c1[nH]ccc(Oc2ccccc2)c1I
fold change (FC) [2]: 300

FC(F)(F)c1nc2c(Br)c(Br)c(Br)c(Br)c2[nH]1
Ki [3]: 0.4 µM

CCn1c2ccccc2c2cc(CNC)ccc21
Kd [4]: 150 µM

S=C1NC2C(I)=C(I)C(I)=C(I)C2N1 (stereo not given)
Ki [5]: 0.2 µM

Cc1nc2c(I)c(Cl)c(Cl)c(I)c2[nH]1
Ki [6]: 0.2 µM

Clc1c(Cl)c(I)c2[nH]cnc2c1I
Ki [6]: 0.3 µM

FC(F)(F)c1nc2c(I)c(I)c(I)c(I)c2[nH]1
Ki [5]: 0.37 µM

S=c1[nH]c2c(Br)c(Br)c(Br)c(Br)c2[nH]1
Ki [7]: 0.07 µM

CS(=O)(=O)c1nc2c(Br)c(Br)c(Br)c(Br)c2[nH]1
Ki [6]: 0.15 µM
